Among the test systems are HOP-62; SF-295; SNB-75; SK-MEL-5; UACC-62; RPMI-8226; HOP-92; SF-539; U-251; TK-10; NCI-H226; M14; SK-MEL-28; SR; SK-MEL-2; MOLT-4; A498; HCT-116; OVCAR-3; OVCAR-4.
Common to all, as to test: NCI tumour cell line growth inhibition, 48 h

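Results reflect a 48-hour exposure of cells in 96-well plates to compound at five concentrations. The concentration for 50% growth inhibition is given as GI50.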 Calls of active or inactive are those of the source. Cut-off read from the data, not from the text of the source: active = GI50 up to about 1.1 µM and inactive = higher. Bounds are passed on as bounds.

Regarding `CCC1([N+](=O)[O-])CC2C=CC1C2` (stereo not given), the GI50 in the experiment on HOP-62, in the experiment on SF-295, in the experiment on SNB-75, with SK-MEL-5, in the experiment with UACC-62 and in the experiment with RPMI-8226 was > 100 µM (inactive) each time. Moreover, the GI50 in the experiment on HOP-92 was 62.7 µM (inactive); with SF-539, > 100 µM (inactive); with U-251, > 100 µM (inactive); with TK-10, > 100 µM (inactive); in the experiment with NCI-H226 it was > 100 µM (inactive); with M14, > 100 µM (inactive). Besides, the GI50 in the experiment on SK-MEL-28, in the experiment on SR, in the experiment on SK-MEL-2, with MOLT-4, in the experiment with A498 and in the experiment on HCT-116 was > 100 µM (inactive) in each case. Besides, the GI50 in the experiment with OVCAR-3 and with OVCAR-4 was > 100 µM (inactive) in each case.

For the molecule `Cc1cn(C2CC(O)C(Cn3cc(Cn4ncc(=O)[nH]c4=O)nn3)O2)c(=O)[nH]c1=O` (stereo not given), the GI50 with HOP-62, in the experiment on SF-295, in the experiment on SNB-75, with SK-MEL-5, in the experiment with UACC-62 and in the experiment with RPMI-8226 was > 100 µM (inactive) each time. The GI50 with HOP-92, with SF-539, with U-251, with TK-10, in the experiment on NCI-H226 and with M14 was > 100 µM (inactive) throughout. In addition, the GI50 in the experiment on SK-MEL-28, in the experiment with SR, in the experiment with SK-MEL-2, in the experiment on MOLT-4, with A498 and in the experiment with HCT-116 was > 100 µM (inactive) in each case. Further, the GI50 with OVCAR-3 and with OVCAR-4 was > 100 µM (inactive) throughout.

`CCc1nc(N)nc(N)c1-c1ccc2nnn(O)c2c1`: the GI50 with HOP-62, in the experiment on SF-295, with SNB-75, in the experiment on SK-MEL-5, in the experiment on UACC-62 and in the experiment on RPMI-8226 was > 100 µM (inactive) in each case. The GI50 with HOP-92, in the experiment on SF-539, in the experiment on U-251, in the experiment on TK-10, in the experiment with NCI-H226 and in the experiment with M14 was > 100 µM (inactive) in each case. The GI50 with SK-MEL-28 is > 100 µM (inactive); in the experiment with SR, > 100 µM (inactive); in the experiment with SK-MEL-2, > 100 µM (inactive); in the experiment on MOLT-4 it was > 100 µM (inactive); in the experiment on A498, > 100 µM (inactive); with HCT-116, > 83.8 µM (inactive). The GI50 with OVCAR-3 and in the experiment on OVCAR-4 was > 100 µM (inactive) each time.

For `N#CC(c1ccccc1)N(CCc1ccccc1)C(=O)c1ccccc1` (stereo not given), the GI50 was 34 µM (inactive) in the experiment with HOP-62; 38.5 µM (inactive) in the experiment with SF-295; 12.7 µM (inactive) in the experiment on SNB-75; > 100 µM (inactive) with SK-MEL-5; 51.2 µM (inactive) with UACC-62; > 100 µM (inactive) in the experiment on RPMI-8226. In addition, the GI50 is 20 µM (inactive) in the experiment with HOP-92; 31.3 µM (inactive) with SF-539; 52.4 µM (inactive) in the experiment with U-251; > 75.2 µM (inactive) in the experiment with TK-10; > 58.7 µM (inactive) in the experiment on NCI-H226; > 100 µM (inactive) in the experiment with M14. Moreover, the GI50 in the experiment on SK-MEL-28 was > 100 µM (inactive); with SR it was > 100 µM (inactive); in the experiment with SK-MEL-2, > 64.7 µM (inactive); in the experiment on MOLT-4, > 100 µM (inactive); in the experiment on A498, > 100 µM (inactive); with HCT-116 it was > 74.8 µM (inactive). Also, the values for the GI50 with OVCAR-3 and with OVCAR-4 were > 100 µM (inactive) and 51.2 µM (inactive), respectively.

For `Cc1ccc(NC(=O)CCc2nnc(S)[nH]2)cc1`, the GI50 in the experiment on HOP-62 was > 100 µM (inactive); in the experiment on SF-295 it was > 100 µM (inactive); in the experiment with SNB-75, 83.2 µM (inactive); in the experiment with SK-MEL-5, > 100 µM (inactive); with UACC-62, 17 µM (inactive); with RPMI-8226, > 100 µM (inactive). The GI50 in the experiment on HOP-92, in the experiment on SF-539, in the experiment on U-251, with TK-10, with NCI-H226 and in the experiment with M14 was > 100 µM (inactive) throughout. The GI50 in the experiment with SK-MEL-28, in the experiment on SR, in the experiment on SK-MEL-2, in the experiment on MOLT-4, in the experiment with A498 and in the experiment with HCT-116 was > 100 µM (inactive) in each case. Further, the GI50 with OVCAR-3 and in the experiment with OVCAR-4 was > 100 µM (inactive) in each case.

As for `COc1ccc([C@H]2CC(=O)C[C@H](c3ccc(OC)cc3)C23C(=O)c2ccccc2C3=O)cc1`, the GI50 with HOP-62 is 6.25 µM (inactive); in the experiment with SF-295, 3.95 µM (inactive); with SNB-75, 2.9 µM (inactive); in the experiment on SK-MEL-5, 3.46 µM (inactive); in the experiment with UACC-62, 4 µM (inactive); in the experiment with RPMI-8226, 4.54 µM (inactive). In addition, the GI50 is 5.74 µM (inactive) in the experiment with HOP-92; 5.04 µM (inactive) in the experiment on SF-539; 4.24 µM (inactive) with U-251; 7.82 µM (inactive) in the experiment with TK-10; 6.11 µM (inactive) in the experiment on NCI-H226; 6.34 µM (inactive) with M14. The GI50 in the experiment on SK-MEL-28 was 9.64 µM (inactive); with SR it was 3.28 µM (inactive); in the experiment with SK-MEL-2 it was 3.3 µM (inactive); in the experiment on MOLT-4 it was 4.79 µM (inactive); with A498, > 100 µM (inactive); in the experiment on HCT-116 it was 4.46 µM (inactive). The GI50 is 2.97 µM (inactive) in the experiment with OVCAR-3 and 9.57 µM (inactive) in the experiment with OVCAR-4.

Regarding `O=C1/C(=C/c2ccc([N+](=O)[O-])cc2)CNC/C1=C\c1ccc([N+](=O)[O-])cc1`, the GI50 with HOP-62 was 4.55 µM (inactive); in the experiment with SF-295 it was 10.2 µM (inactive); in the experiment with SNB-75 it was 2.6 µM (inactive); in the experiment with SK-MEL-5 it was 10.8 µM (inactive); in the experiment with UACC-62 it was 12.3 µM (inactive); with RPMI-8226, 0.382 µM (active). Moreover, the GI50 in the experiment on HOP-92 was 22.1 µM (inactive); in the experiment with SF-539 it was 2.09 µM (inactive); in the experiment on U-251, 0.469 µM (active); with TK-10, 33.1 µM (inactive); in the experiment with NCI-H226, 15 µM (inactive); in the experiment with M14, 12.5 µM (inactive). Moreover, the GI50 in the experiment on SK-MEL-28 is 1.82 µM (inactive); in the experiment on SR it was 0.241 µM (active); in the experiment with SK-MEL-2, 31.8 µM (inactive); in the experiment on MOLT-4, 2.22 µM (inactive); with A498, 16.6 µM (inactive); in the experiment with HCT-116 it was 0.63 µM (active). Besides, the GI50 in the experiment with OVCAR-3 was 2.45 µM (inactive); in the experiment on OVCAR-4, 3.63 µM (inactive).

The record behind these values is ChEMBL document CHEMBL1201862, “PubChem BioAssay data set” (2004).
